In general, IC50 refers to the concentration needed to halve the response being measured. The low end stands for greater potency, the high end for weaker potency. One may read the Kd as the concentration at which binding is half-saturated.

Where only a bound is given, the exact number is not on record here.

This note sets out measurements from publication PMC12153055 (Organometallics, 2025).

The subject of data set [1] is MCF7 human breast adenocarcinoma cells. The data set is described as follows: MTT cytotoxicity assay, MCF7 cells. Particulars: for IC50: MTT, 72 h exposure, mean ± SD of three experiments; for SI MCF7 MCF10A: selectivity index, values equal IC50 MCF10A / IC50 MCF7. Type of data set: cell-based. The method, then: (§1) The stability of [1]-Cl-[4]-Cl was evaluated in aqueous phosphate-buffered solution (PBS, pH 7.4) using UV–visible spectroscopy. […] The cytotoxicity of the compounds was measured according to a standard MTT assay against human breast cancer (MCF7 and MCF7CR) and ovarian cancer (A2780 and A2780cis) cell lines, and also nontumorigenic MCF10A and human embryonic kidney HEK293T cells (Table ).
(§2) All cell lines were grown in a humidified 5% CO2 environment at 37 °C in dedicated media. Growth media comprised minimum essential medium (MEM) supplemented with 10% FBS, 1% sodium pyruvate, antibiotics, and antimycotic agents for MCF7. MCF10A cells were cultured in a DMEM/F12 Ham’s mixture supplemented with 5% equine serum, 20 ng/mL EGF, 10 μg/mL insulin, […], antibiotics, and antimycotics. MCF7-CR cells were grown in minimum essential medium (MEM), 10% FBS supplemented with 0.1 mg/mL cisplatin, sodium pyruvate, antibiotics, and antimycotics. A2780 and A2780cis cells were cultured in RPMI 1640 GlutaMAX, and HEK293T cells were cultured in DMEM GlutaMAX medium containing 10% heat-inactivated FBS and antibiotics. The effect exerted on cell viability by the compounds was determined using the 3-(4,5-dimethylthiazol-2-yl)-2,5-diphenyltetrazolium bromide (MTT) assay. After individual treatments with 0–100 μM of the compound for 72 h, MTT was added to the culture media at a final concentration of 0.5 mg/mL and incubated for 2 h at 37 °C. Cisplatin was used as a positive control. The medium was replaced with 100 μL of DMSO, and after 10 min, the optical density was recorded at 550 nm on a microplate reader. At least six cultures were used for each data point. Chemicals (Merck-Sigma, Milan, Italy) and plasticware (Corning, Milan, Italy) were cell culture grade.
A general note: Tetrazolium assays rely on reduction of a dye to a coloured formazan, in cell work by metabolically active cells.

Data set [2] relates to p62. The data set is described as follows: Western blot quantification of p62 in MCF7 cells. The data set is classed as cell-based, human. The conditions noted are these: 10 μM, 24 h. As for the experimental part: Since no significant correlation emerged among cytotoxicity, DNA binding affinity, and proteasome inhibition, the effects of the treatment on the expression levels of p62 were evaluated. p62 is a multifunctional binding protein that is involved in signaling pathways of many cellular activities, including autophagy, whose abnormal expression is associated with malignancies, breast cancer in particular. […] This effect was more evident for the free ligand, in agreement with its higher cytotoxicity to breast cancer cells compared with that of the corresponding ruthenium complex (Figure ).
4 Representative autoradiographs (upper panel) and densitometric analyses (lower panel) of p62 levels in MCF7 cells treated with 10 μM of HZPbdcurc and [3]-Cl for 24 h (*p < 0.01 compared with the control; #p < 0.01 compared with [3]-Cl).
Semiquantitative analysis of p62 was performed by Western blotting upon individual 24 h treatments of MCF-7 cells with 10 μM of HZPbdcurc or [Ru(p-cym)(HZPbdcurc)-Cl]-Cl. Treated cells were lysed, and 15 μg of total protein was electrophoresed on 12% SDS-PAGE, then protein bands were electroblotted onto PVDF membranes (Millipore–Milan, Italy). After incubation with anti-p62 monoclonal antibody (Merck Sigma–Milan, Italy), the bands were immunodetected on a ChemiDoc MP imaging system (Bio-Rad - Milan, Italy). […] Western blot results were analyzed using Fiji software.
(In general: Immunoblotting shows a protein as a band on a membrane.)

Data set [3] relates to HEK293T human embryonic kidney cells. The data set is described as follows: MTT cytotoxicity assay, HEK293T cells. The conditions noted are these: 72 h exposure, mean ± SD of three experiments. Type of data set: cell-based. As for the experimental part: as §1, §2
Data set [4] concerns the target 20S proteasome trypsin-like activity (Homo sapiens, UniProt Q99436). The data set is described as follows: Isolated 20S proteasome, trypsin-like activity (Z-Leu-Ser-Thr-Arg-AMC). Type of data set: biochemical. Particulars: 0–100 μM, 1 h, 37 °C, pH 8.0. The method, then:
(§3) Proteasome inhibition by the compounds was evaluated with respect to three major activities of the 20S proteasome, namely, chymotrypsin-like, trypsin-like, and caspase-like activities.
(§4) The effect of the compounds on the activity of the isolated 20S proteasome was tested using specific synthetic fluorogenic peptide substrates (Suc-Leu-Leu-Val-Tyr-AMC, Z-Leu-Ser-Thr-Arg-AMC, and Z-Leu-Leu-Glu-AMC for chymotrypsin-like, trypsin-like, and peptidyl glutamyl peptide hydrolase activity, respectively) as reported elsewhere. Briefly, individual mixtures consisting of the compounds (0–100 μM), 1 μg of isolated 20S proteasome, the specific substrate, and 50 mM Tris–HCl pH 8.0 up to a final volume of 100 μL were incubated at 37 °C, and after 1 h, the fluorescence measurements of the hydrolyzed AMC were recorded on a SpectraMax Gemini XPS microplate reader (λexc = 365 nm, λem = 449 nm).

Data set [5] has as its target 20S proteasome PGPH (caspase-like) activity (Homo sapiens, UniProt P28072). Nature of the data set: Isolated 20S proteasome, peptidyl glutamyl peptide hydrolase (caspase-like) activity (Z-Leu-Leu-Glu-AMC). The conditions noted are these: 0–100 μM, 1 h, 37 °C, pH 8.0. Type of data set: biochemical. The method, then: as §3, §4
Data set [6] has as its system dsDNA oligomer. The data set is described as follows: SPR biosensor binding to surface-anchored dsDNA oligomer. The conditions noted are these: surface-blocked DNA oligomer; for Kd: equilibrium dissociation constant. As for the experimental part: The DNA binding ability of curcuminoid ligands and their complexes was evaluated by using a Surface plasmon resonance (SPR) biosensor. The monoexponential nature of binding kinetics for all the compounds is consistent with the presence of a single high-affinity site on DNA (Figure ).
The binding kinetics/affinities of the molecules of interest for DNA were studied according to a previously described biosensor-based method. Briefly, streptavidin was anchored to a carboxylate surface via EDC/NHS chemistry, and 5′-biotinylated dsDNA oligomer (sequence: 3′-[…]-5′) was coupled to surface-blocked streptavidin. Compounds were independently added to the DNA-coated surface at different concentrations, each time following binding kinetics up to equilibrium. PBS buffer was used for both the dissociation and the regeneration steps. Experimental data were fitted to both mono- and biexponential models, and the validity of each model was assessed by a standard F-test procedure. The binding sites on DNA were mapped according to independent competitive binding assays individually using a minor groove binder (GelRed) and a major groove binder (methyl green), respectively. Briefly, GelRed displacement was monitored by comparing the emission spectra of solutions containing different concentrations of curcuminoid-like ligands/complexes (0–100 μM), 20 μM DNA, and GelRed (10 μM) in 10 mM phosphate buffer, pH 7.4. Similarly, methyl green displacement assay was performed by monitoring the absorbance at 630 nm upon addition of candidate competitors (0–100 μM), 100 μM DNA, and methyl green (10 μM) in 50 mM Tris–HCl buffer and 7.5 mM MgSO4, pH 7.5.
(Surface plasmon resonance follows binding to a sensor surface in real time, without labels.)

Data set [7] deals with MCF10A nontumorigenic cells. Nature of the data set: MTT cytotoxicity assay, MCF10A cells. The data set is classed as cell-based, human. Particulars: 72 h exposure, mean ± SD of three experiments. The method, then:
as §1, §2

In data set [8] the test system is A2780 human ovarian carcinoma cells. The data set is described as follows: MTT cytotoxicity assay, A2780 cells. The data set is classed as cell-based. Particulars: for IC50: MTT, 72 h exposure, mean ± SD of three experiments; for SI A2780 HEK293T: selectivity index, values equal IC50 HEK293T / IC50 A2780. As for the experimental part:
as §1, §2

The subject of data set [9] is A2780cis cisplatin-resistant ovarian cancer cells. The data set is described as follows: MTT cytotoxicity assay, A2780cis cells. Type of data set: cell-based, human. The conditions noted are these: 72 h exposure, mean ± SD of three experiments. As for the experimental part: as §1, §2
The subject of data set [10] is MCF7-CR cisplatin-resistant breast cancer cells. The data set is described as follows: MTT cytotoxicity assay, MCF7CR cells. The data set is classed as cell-based, human. Particulars: 72 h exposure, mean ± SD of three experiments. The method, then: as §1, §2
The target in data set [11] is 20S proteasome chymotrypsin-like activity (Homo sapiens, UniProt P28074). The data set is described as follows: Isolated 20S proteasome, chymotrypsin-like activity (Suc-Leu-Leu-Val-Tyr-AMC). Type of data set: biochemical. Particulars: 0–100 μM, 1 h, 37 °C, pH 8.0. The method, then:
as §3, §4

Data set [12] can be described thus: Solubility in water (qualitative). The data set is classed as physicochemical.

In the case of `Oc1ccc(/C=C/c2cc(/C=C/c3ccc(O)cc3)n(-c3ccccn3)n2)cc1` [HZPbdcurc, 4,4′-((1E,1′E)-(1-(pyridin-2-yl)-1H-pyrazole-3,5-diyl)bis(ethene-2,1-diyl))diphenol], the IC50 is 35.1 ± 3 µM in data set [1] (Homo sapiens, MCF7); 17 ± 0.9 µM in data set [3] (Homo sapiens, HEK-293T); above 100 µM in data set [4]; above 100 µM in data set [5]; 9.7 ± 6.5 µM in data set [7] (Homo sapiens, MCF-10A); 8 ± 1.2 µM in data set [8] (Homo sapiens, A2780). Further, the IC50 in [9] (Homo sapiens, A2780cis) is 11.1 ± 2.9 µM; in [10] (Homo sapiens) it was 25.9 ± 11 µM; in data set [11], above 100 µM. The “SI MCF7 MCF10A” value in data set [1] is given as 0.28. In addition, the p62 levels result in data set [2] is “an increase in the levels of p62 was observed”. The compound also registered a kass in data set [6] of 1808 ± 740 M^–1s^–1. The compound further had a kdiss in data set [6] of 0.031 ± 0.004 s^–1. The Kd in data set [6] is 17 ± 7.3 µM. Besides, the “SI A2780 HEK293T” value in [8] was 2.13.

As to `Cc1ccc(C(C)C)cc1.Oc1ccc(/C=C/c2cc(/C=C/c3ccc(O)cc3)n(-c3ccccn3)n2)cc1.[Cl-].[Cl][Ru+]` [[3]Cl, [Ru(p-cym)(HZPbdcurc)Cl]Cl], the IC50 in data set [1] was 23 ± 6 µM; in data set [3], 19 ± 2 µM; in data set [4], above 100 µM; in [5], above 100 µM; in [7] it was 15.6 ± 8.9 µM; in [8], 2 ± 0.1 µM. The IC50 was 2.7 ± 0.4 µM in data set [9], 31.9 ± 6 µM in [10] and above 100 µM in data set [11]. Also, in data set [1], the “SI MCF7 MCF10A” value turned out to be 0.68. For the same compound, the solubility in water result in data set [12] is given as “partly soluble in H2O”. Moreover, the p62 levels result in data set [2] was “an increase in the levels of p62 was observed”. For the same compound, the kass in data set [6] came to 10281 ± 5155 M^–1s^–1. This compound also registered a kdiss in [6] of 0.02 ± 0.01 s^–1. In data set [6], this compound came in with a Kd of 2.2 ± 1.5 µM. Besides, the “SI A2780 HEK293T” value in [8] came out at 9.50.
